Experimental data taken from ChEMBL document CHEMBL1154627, “Structure-activity relationship studies of targeting ligands against breast cancer cells” (J Med Chem, 2009).
Where a SMILES comes first, the peptide text is derived from it. Bridges are numbered along the chain shown (N, C = ends). [ ]: non-standard residue; d: D form. Tyr(3-NO2) = N[C@@H](Cc1ccc(O)c([N+](=O)[O-])c1)C(=O)O; Hyp = O=C(O)[C@@H]1C[C@@H](O)CN1

Assay: Binding affinity to alpha3beta1 integrin receptor in human MDA-MB-231 cells assessed as inhibition of cell binding to immobilized LXY1 peptide by cell adherence assay
Type: cell-based
For `NC(=O)C[C@@H]1NC(=O)[C@@H]2C[C@@H](O)CN2C(=O)CNC(=O)[C@H](Cc2ccc(O)c([N+](=O)[O-])c2)NC(=O)CNC(=O)[C@@H](CC(=O)O)NC(=O)[C@H](NCc2cccc([N+](=O)[O-])c2)CSSC[C@H](C(N)=O)NC1=O`, the IC50 was > 25 µM.
With `NC(=O)C[C@@H]1NC(=O)[C@@H]2C[C@@H](O)CN2C(=O)CNC(=O)[C@H](c2c(F)c(F)c(F)c(F)c2F)NC(=O)CNC(=O)[C@@H](CC(=O)O)NC(=O)[C@H](N)CSSC[C@H](C(N)=O)NC1=O` the IC50 was 11.7 µM.
With `NC(=O)C[C@@H]1NC(=O)[C@@H]2C[C@@H](O)CN2C(=O)CNC(=O)[C@H](Cc2cc(I)c(O)c(I)c2)NC(=O)CNC(=O)[C@@H](CC(=O)O)NC(=O)[C@H](N)CSSC[C@H](C(N)=O)NC1=O` the IC50 was > 25 µM.
For `NC(=O)C[C@@H]1NC(=O)[C@@H]2C[C@@H](O)CN2C(=O)CNC(=O)[C@H](Cc2ccc(O)c([N+](=O)[O-])c2)NC(=O)CNC(=O)[C@@H](CC(=O)O)NC(=O)[C@H](NC(=O)Nc2ccc(C(F)(F)F)cc2)CSSC[C@H](C(N)=O)NC1=O`, the IC50 was > 25 µM.
With `NC(=O)C[C@@H]1NC(=O)[C@@H]2C[C@@H](O)CN2C(=O)CNC(=O)[C@H](Cc2ccc(O)c([N+](=O)[O-])c2)NC(=O)CNC(=O)[C@@H](CC(=O)O)NC(=O)[C@H](NC(=O)Nc2ccccc2)CSSC[C@H](C(N)=O)NC1=O` the IC50 was > 25 µM.
With `NC(=O)C[C@@H]1NC(=O)[C@@H]2C[C@@H](O)CN2C(=O)CNC(=O)[C@H](Cc2ccc(O)c(I)c2)NC(=O)CNC(=O)[C@@H](CC(=O)O)NC(=O)[C@H](N)CSSC[C@H](C(N)=O)NC1=O` the IC50 was > 25 µM.
`NC(=O)C[C@@H]1NC(=O)[C@@H]2C[C@@H](O)CN2C(=O)CNC(=O)[C@H](Cc2ccc(O)c(Cl)c2)NC(=O)CNC(=O)[C@@H](CC(=O)O)NC(=O)[C@H](N)CSSC[C@H](C(N)=O)NC1=O` showed an IC50 of 19.8 µM.
With `NC(=O)C[C@@H]1NC(=O)[C@@H]2C[C@@H](O)CN2C(=O)CNC(=O)[C@H](Cc2ccc(O)c([N+](=O)[O-])c2)NC(=O)CNC(=O)[C@@H](CC(=O)O)NC(=O)[C@H](NCc2cccnc2)CSSC[C@H](C(N)=O)NC1=O` the IC50 was > 25 µM.
`NC(=O)C[C@@H]1NC(=O)[C@@H]2C[C@@H](O)CN2C(=O)CNC(=O)[C@H](Cc2cc([N+](=O)[O-])c(O)c([N+](=O)[O-])c2)NC(=O)CNC(=O)[C@@H](CC(=O)O)NC(=O)[C@H](N)CSSC[C@H](C(N)=O)NC1=O` showed an IC50 of 11.9 µM.
In the case of `NC(=O)C[C@@H]1NC(=O)[C@@H]2C[C@@H](O)CN2C(=O)CNC(=O)[C@H](Cc2ccc(O)c([N+](=O)[O-])c2)NC(=O)CNC(=O)[C@@H](CC(=O)O)NC(=O)[C@H](NC(=O)Nc2ccc(-c3ccccc3)cc2)CSSC[C@H](C(N)=O)NC1=O`, the IC50 is reported as > 25 µM.
With `CCCCNC(=O)N[C@@H]1CSSC[C@H](C(N)=O)NC(=O)[C@H](CC(N)=O)NC(=O)[C@@H]2C[C@@H](O)CN2C(=O)CNC(=O)[C@H](Cc2ccc(O)c([N+](=O)[O-])c2)NC(=O)CNC(=O)[C@@H](CC(=O)O)NC1=O` the IC50 was > 25 µM.
With `N#Cc1cccc([C@@H]2NC(=O)CNC(=O)[C@@H](CC(=O)O)NC(=O)[C@H](N)CSSC[C@H](C(N)=O)NC(=O)[C@H](CC(N)=O)NC(=O)[C@@H]3C[C@@H](O)CN3C(=O)CNC2=O)c1` the IC50 was > 25 µM.
In the case of `NC(=O)C[C@@H]1NC(=O)[C@@H]2C[C@@H](O)CN2C(=O)CNC(=O)[C@@H]2C[C@@H](c3ccccc3)CN2C(=O)CNC(=O)[C@@H](CC(=O)O)NC(=O)[C@H](N)CSSC[C@H](C(N)=O)NC1=O`, the IC50 is reported as > 25 µM.
For `COc1cc(C[C@@H]2NC(=O)CNC(=O)[C@@H](CC(=O)O)NC(=O)[C@H](N)CSSC[C@H](C(N)=O)NC(=O)[C@H](CC(N)=O)NC(=O)[C@@H]3C[C@@H](O)CN3C(=O)CNC2=O)ccc1O`, the IC50 was > 25 µM.
In the case of `NC(=O)C[C@@H]1NC(=O)[C@@H]2C[C@@H](O)CN2C(=O)CNC(=O)[C@H](c2ccccc2[N+](=O)[O-])NC(=O)CNC(=O)[C@@H](CC(=O)O)NC(=O)[C@H](N)CSSC[C@H](C(N)=O)NC1=O`, the IC50 is reported as 19.6 µM.
With `NC(=O)C[C@@H]1NC(=O)[C@@H]2C[C@@H](O)CN2C(=O)CNC(=O)[C@H](Cc2ccc(O)c([N+](=O)[O-])c2)NC(=O)CNC(=O)[C@@H](CC(=O)O)NC(=O)[C@H](NC(=O)NC2CCCCC2)CSSC[C@H](C(N)=O)NC1=O` the IC50 was > 25 µM.
In the case of `NC(=O)C[C@@H]1NC(=O)[C@@H]2C[C@@H](O)CN2C(=O)CNC(=O)[C@H](CCc2ccc(O)cc2)NC(=O)CNC(=O)[C@@H](CC(=O)O)NC(=O)[C@H](N)CSSC[C@H](C(N)=O)NC1=O`, the IC50 is reported as > 25 µM.
In the case of `NC(=O)C[C@@H]1NC(=O)[C@@H]2C[C@@H](O)CN2C(=O)CNC(=O)[C@@H]2CCCCN2C(=O)CNC(=O)[C@@H](CC(=O)O)NC(=O)[C@H](N)CSSC[C@H](C(N)=O)NC1=O`, the IC50 is reported as 24.1 µM.
`NC(=O)C[C@@H]1NC(=O)[C@@H]2C[C@@H](O)CN2C(=O)CNC(=O)[C@H](c2cccc(C(F)(F)F)c2)NC(=O)CNC(=O)[C@@H](CC(=O)O)NC(=O)[C@H](N)CSSC[C@H](C(N)=O)NC1=O` gave an IC50 of 11.9 µM.
In the case of `NC(=O)C[C@@H]1NC(=O)[C@@H]2C[C@@H](O)CN2C(=O)CNC(=O)[C@H](c2cccc([N+](=O)[O-])c2)NC(=O)CNC(=O)[C@@H](CC(=O)O)NC(=O)[C@H](N)CSSC[C@H](C(N)=O)NC1=O`, the IC50 is reported as 3.1 µM.
For `NC(=O)C[C@@H]1NC(=O)[C@@H]2C[C@@H](O)CN2C(=O)CNC(=O)[C@H](Cc2cc(Br)c(O)c(Br)c2)NC(=O)CNC(=O)[C@@H](CC(=O)O)NC(=O)[C@H](N)CSSC[C@H](C(N)=O)NC1=O`, the IC50 was > 25 µM.
For `CN(C)c1ccc(CN[C@@H]2CSSC[C@H](C(N)=O)NC(=O)[C@H](CC(N)=O)NC(=O)[C@@H]3C[C@@H](O)CN3C(=O)CNC(=O)[C@H](Cc3ccc(O)c([N+](=O)[O-])c3)NC(=O)CNC(=O)[C@@H](CC(=O)O)NC2=O)cc1`, the IC50 was > 25 µM.
Work on `NC(=O)C[C@@H]1NC(=O)[C@@H]2C[C@@H](O)CN2C(=O)CNC(=O)[C@@H]2CCCN2C(=O)CNC(=O)[C@@H](CC(=O)O)NC(=O)[C@H](N)CSSC[C@H](C(N)=O)NC1=O` yielded an IC50 of 16.9 µM.
In the case of `NC(=O)C[C@@H]1NC(=O)[C@@H]2C[C@@H](O)CN2C(=O)CNC(=O)[C@H](Cc2ccc(O)c([N+](=O)[O-])c2)NC(=O)CNC(=O)[C@@H](CC(=O)O)NC(=O)[C@H](NC(=O)Nc2ccc([N+](=O)[O-])cc2)CSSC[C@H](C(N)=O)NC1=O`, the IC50 is reported as > 25 µM.
In the case of `CCCCCCN(CCCCCC)[C@@H]1CSSC[C@H](C(N)=O)NC(=O)[C@H](CC(N)=O)NC(=O)[C@@H]2C[C@@H](O)CN2C(=O)CNC(=O)[C@H](Cc2ccc(O)c([N+](=O)[O-])c2)NC(=O)CNC(=O)[C@@H](CC(=O)O)NC1=O`, the IC50 is reported as > 25 µM.
With `NC(=O)C[C@@H]1NC(=O)[C@@H]2C[C@@H](O)CN2C(=O)CNC(=O)[C@H](Cc2ccc(O)c([N+](=O)[O-])c2)NC(=O)CNC(=O)[C@@H](CC(=O)O)NC(=O)[C@H](NCc2ccc(-c3ccccc3)cc2)CSSC[C@H](C(N)=O)NC1=O` the IC50 was > 25 µM.
In the case of `CC(C)NC(=O)N[C@@H]1CSSC[C@H](C(N)=O)NC(=O)[C@H](CC(N)=O)NC(=O)[C@@H]2C[C@@H](O)CN2C(=O)CNC(=O)[C@H](Cc2ccc(O)c([N+](=O)[O-])c2)NC(=O)CNC(=O)[C@@H](CC(=O)O)NC1=O`, the IC50 is reported as > 25 µM.
With `NC(=O)C[C@@H]1NC(=O)[C@@H]2C[C@@H](O)CN2C(=O)CNC(=O)[C@H](c2ccccc2F)NC(=O)CNC(=O)[C@@H](CC(=O)O)NC(=O)[C@H](N)CSSC[C@H](C(N)=O)NC1=O` the IC50 was > 25 µM.
`NC(=O)[C@H]1CSSC[C@@H](N)C(=O)N[C@H](CC(=O)O)C(=O)NCC(=O)N[C@@H](Cc2ccc(O)c([N+](=O)[O-])c2)C(=O)NCC(=O)N2C[C@H](O)C[C@H]2C(=O)N[C@@H](CC(=O)O)C(=O)N1` showed an IC50 of 17.1 µM.
`NC(=O)C[C@@H]1NC(=O)[C@@H]2C[C@@H](O)CN2C(=O)CNC(=O)[C@@H]2C=CCN2C(=O)CNC(=O)[C@@H](CC(=O)O)NC(=O)[C@H](N)CSSC[C@H](C(N)=O)NC1=O` gave an IC50 of 15.3 µM.
In the case of `CC(C)CN[C@@H]1CSSC[C@H](C(N)=O)NC(=O)[C@H](CC(N)=O)NC(=O)[C@@H]2C[C@@H](O)CN2C(=O)CNC(=O)[C@H](Cc2ccc(O)c([N+](=O)[O-])c2)NC(=O)CNC(=O)[C@@H](CC(=O)O)NC1=O`, the IC50 is reported as > 25 µM.
Compound `NC(=O)C[C@@H]1NC(=O)[C@@H]2C[C@@H](O)CN2C(=O)CNC(=O)[C@H](c2ccc(F)c(F)c2)NC(=O)CNC(=O)[C@@H](CC(=O)O)NC(=O)[C@H](N)CSSC[C@H](C(N)=O)NC1=O` has an IC50 of 6.3 µM.
With `NC(=O)C[C@@H]1NC(=O)[C@@H]2C[C@@H](O)CN2C(=O)CNC(=O)[C@H](Cc2ccc(O)c([N+](=O)[O-])c2)NC(=O)CNC(=O)[C@@H](CC(=O)O)NC(=O)[C@H](N)C/C=C/C[C@H](C(N)=O)NC1=O` the IC50 was > 25 µM.
With `NC(=O)C[C@@H]1NC(=O)[C@@H]2C[C@@H](O)CN2C(=O)CNC(=O)[C@H](c2cc(F)c(F)c(F)c2)NC(=O)CNC(=O)[C@@H](CC(=O)O)NC(=O)[C@H](N)CSSC[C@H](C(N)=O)NC1=O` the IC50 was 5.9 µM.
`NC(=O)C[C@@H]1NC(=O)[C@@H]2C[C@@H](O)CN2C(=O)CNC(=O)[C@H](c2cccc(F)c2)NC(=O)CNC(=O)[C@@H](CC(=O)O)NC(=O)[C@H](N)CSSC[C@H](C(N)=O)NC1=O` gave an IC50 of 11.3 µM.
With `NC(=O)C[C@@H]1NC(=O)[C@@H]2C[C@@H](O)CN2C(=O)CNC(=O)[C@H](c2ccc(C(F)(F)F)cc2)NC(=O)CNC(=O)[C@@H](CC(=O)O)NC(=O)[C@H](N)CSSC[C@H](C(N)=O)NC1=O` the IC50 was > 25 µM.
For `NC(=O)C[C@@H]1NC(=O)[C@@H]2C[C@@H](O)CN2C(=O)CNC(=O)[C@H](Cc2ccc(O)c([N+](=O)[O-])c2)NC(=O)CNC(=O)[C@@H](CC(=O)O)NC(=O)[C@H](N)CNC(=O)C[C@H](C(N)=O)NC1=O`, the IC50 was > 25 µM.
With `COC(=O)c1ccc(NC(=O)N[C@@H]2CSSC[C@H](C(N)=O)NC(=O)[C@H](CC(N)=O)NC(=O)[C@@H]3C[C@@H](O)CN3C(=O)CNC(=O)[C@H](Cc3ccc(O)c([N+](=O)[O-])c3)NC(=O)CNC(=O)[C@@H](CC(=O)O)NC2=O)cc1` the IC50 was > 25 µM.
Compound `NCC[C@@H]1NC(=O)[C@@H]2C[C@@H](O)CN2C(=O)CNC(=O)[C@H](Cc2ccc(O)c([N+](=O)[O-])c2)NC(=O)CNC(=O)[C@@H](CC(=O)O)NC(=O)[C@H](N)CSSC[C@H](C(N)=O)NC1=O` has an IC50 of 13.6 µM.
For `NC(=O)C[C@@H]1NC(=O)[C@@H]2C[C@@H](O)CN2C(=O)CNC(=O)[C@H](Cc2ccc(O)c([N+](=O)[O-])c2)NC(=O)CNC(=O)[C@@H](CC(=O)O)NC(=O)[C@H](N)CSSC[C@H](C(N)=O)NC1=O` (H-[dC][dD]G[Tyr(3-NO2)]G[Hyp]N[dC]-NH2; disulfide 1-8), the IC50 was 7.4 µM.
